Measurements taken from patent publication EP0264138B1, “Novel compound DC-102 and process for production thereof” (KYOWA HAKKO KOGYO CO., LTD., priority 1986, dated 1988).

Test system: lymphocytic leukemia P388
Experiment: Therapeutical effect against lymphocytic leukemia P388
Format: in vivo, male CDF₁ mice
Conditions: dose 6 mg/kg intraperitoneally
Description: Five male CDF₁ mice each having a weight of about 22 g were used for each group as test animals, and 1 x 10⁶ cells of lymphocytic leukemia P388 were implanted intraperitoneally in the test animals. 24 hours after implantation, 0.2 mℓ of a phosphate buffer saline (hereinafter referred to as PBS) containing DC-102 was intraperitoneally administered. For comparison, 0.2 mℓ of PBS solution containing mitomycin C was intraperitoneally administered 24 hours after implantation of the tumor cells. The mean survival time (MST) after implantation and increased life span (ILS) represented by T/C (T: MST for test groups; C: MST for control group) are shown in Table 3.

**Q.** `CO[C@@]12[C@H](COC(N)=O)C3=C(C(=O)C(C)=C(N)C3=O)N1C[C@@H]1N[C@@H]12` [Mitomycin C, mitomycin C] was tested. Which MST (24 hours after implantation of 1 x 10⁶ P388 cells) did it give?
**A.** Its MST is 17.2 days.

**Q.** And the “ILS (T/C)” value (T: MST for test groups, C: MST for control group)?
**A.** The value was 166.
